# According to patent publication US5424396A, “Antimicrobial peptide and antimicrobial agent” (Morinaga Milk Industry Co., Ltd., priority 1991, dated 1995):
# Test system: Escherichia coli
# Assay: Antimicrobial activity test: rate of inhibition of E. coli proliferation (turbidity)
# Assay type: cell-based
# Details: 16 hours at 37° C.
# Procedure: One platinum loop was collected from a stock slant of Escherichia coli, streaked on a standard agar medium (manufactured by Nissui Pharmaceutical Co.) and incubated under aerobic conditions for 16 hours at 37° C., the colonies which grew on the surface of the standard agar medium were collected using a platinum loop, suspended in sterilized physiological saline solution, the turbidity was measured using a spectrophotometer (manufactured by Hitachi Manufacturing Co.) and adjusted to 0.1 (O.D.; 660 nm) and a pre-incubation solution was prepared.
# Bactocasitone (manufactured by Difco Laboratory Co.) was dissolved at a concentration of 1% in purified water, the pH was adjusted to 7.0 with 1M sodium hydroxide, the solution was sterilized at 115° C. for 15 minutes and a basal medium (liquid medium) was prepared. […]
# The percentages of the rate of inhibition of proliferation are not in weight (same hereinafter).
substance,measurement,setting,value
Trp-Gln-Trp-Arg (WQWR) [Sample No. 7],inhibitory rate (rate of inhibition of proliferation),added quantity 0.5 μM,0%
same,inhibitory rate (rate of inhibition of proliferation),added quantity 1 μM,21%
same,inhibitory rate (rate of inhibition of proliferation),added quantity 2 μM,68%
same,inhibitory rate (rate of inhibition of proliferation),added quantity 5 μM,83%
same,inhibitory rate (rate of inhibition of proliferation),added quantity 10 μM,95%
same,inhibitory rate (rate of inhibition of proliferation),added quantity 20 μM,100%
same,inhibitory rate (rate of inhibition of proliferation),added quantity 60 μM,100%
same,inhibitory rate (rate of inhibition of proliferation),added quantity 100 μM,100%
same,inhibitory rate (rate of inhibition of proliferation),added quantity 200 μM,100%
